Experimental data: patent publication US20260151375A1, “CDK2 INHIBITORS AND METHODS OF USING THE SAME” (Cedilla Therapeutics, Inc., priority 2022, published 2026)

Experiments:
Kuramochi cells = test: IncuCyte Kuramochi Assay (cell proliferation); assay type: cell-based; settings: 72 h, Kuramochi cells labeled with mApple-H2B, cell count, read-out: IncuCyte - Kuramochi RB-WT: IC50
In short: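 Cells imaged at 0 and 72 h after compound treatment (10 points, ½ log dilution, 20 μM top), with fluorescent nuclei counted. Fold change in count was normalized to DMSO wells and fitted to dose-response curves to give GI50.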

CDK2/Cyclin E1 [1] = target: T1, CDK2/Cyclin E1 (Homo sapiens, UniProt P24941); test: ADPGLO (CDK2/E1-37 C), ADP-Glo Luminescent Kinase Assay; assay type: biochemical; settings: 0.18 nM CDK2/Cyclin E1, 100 μM ATP, Histone H1, 37° C.
T1 construct: purchased 14-475
Procedure: Inhibition of CDK2/Cyclin E1 activity by the presence of small molecules was evaluated using ADP-Glo Luminescent Kinase Assay (Promega). Activated CDK2/Cyclin E1 was incubated with its substrate Histone H1 (SignalChem H10-54N) in the kinase reaction buffer (100 μM ATP, 50 mM HEPES pH 7.5, 10 mM MgCl2, 1 mM EDTA, 2 mM DTT, 0.01% Brij35, 0.5 mg/mL BSA). Luminescence was recorded with an Envision plate reader (PerkinElmer).
Dose titrations of inhibitors in 100% DMSO were combined with 0.36 nM CDK2/Cyclin E1 in reaction buffer. The mixtures were incubated for 60 minutes at 37° C. before the addition of ATP and Histone H1 substrate to initiate the kinase reaction. The final conditions were 0.18 nM CDK2/Cyclin E1, 100 μM ATP, and 1.5 μM Histone H1. The reactions were incubated at 37° C. for 90 minutes before being stopped with the addition of ADP-Glo reagent. This mixture was incubated at room temperature for 60 minutes before Kinase Detection Solution is added to generate luminescence. The stopped reactions were analyzed on an Envision plate reader. The conversion ratios were normalized to yield % activity, plotted against compound concentration, and fit to a four-parameter equation to determine the IC50 for each compound.

CDK2/Cyclin E1 [2] = target: T1, CDK2/Cyclin E1; test: Caliper Assay (LabChip EZ Reader mobility shift assay), inhibition of CDK2/Cyclin E1 activity; assay type: biochemical; settings: 2.5 nM CDK2/Cyclin E1(14-475), 100 μM ATP, 30 min preincubation; read-out: Caliper Assay (CDK2/CCNE1): IC50
In short: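 Compounds were preincubated 30 min with CDK2/Cyclin E1(14-475), then run for 100 min with 2.5 nM enzyme, 100 μM ATP and 1.5 μM 5-FAM-QSPKKG peptide in HEPES pH 7.5 (final). Reactions were EDTA-stopped and substrate-to-product conversion read by mobility shift. IC50 came from a four-parameter fit.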

Row | Structure (SMILES) | IC50 (Kuramochi cells) [µM] | IC50 (CDK2/Cyclin E1 [1]) [µM] | IC50 (CDK2/Cyclin E1 [2]) [µM]
1 | O=C(c1cc(O)n[nH]1)N1CC(c2nnc(C(F)(F)c3ccc(Cl)c(Cl)c3)o2)C2(C1)CN(C(=O)[C@H]1CC1(F)F)C2 (stereo partly drawn) [I-120, (8-(5-((3,4-dichlorophenyl)difluoromethyl)-1,3,4-oxadiazol-2-yl)-2-((R)-2,2-difluorocyclopropane-1-carbonyl)-2,6-diazaspiro[3.4]octan-6-yl)(3-hydroxy-1H-pyrazol-5-yl)methanone] | > 10 | > 10 | –
2 | CC(c1nc(C2CN(C(=O)c3cnc(O)c(C(F)(F)F)n3)CC23CN(C(=O)C2(C(F)(F)F)CC2)C3)no1)n1ccc(C2CCOCC2)n1 (stereo not drawn) [I-225, (5-Hydroxy-6-(trifluoromethyl)pyrazin-2-yl)(8-(5-(1-(3-(tetrahydro-2H-pyran-4-yl)-1H-pyrazol-1-yl)ethyl)-1,2,4-oxadiazol-3-yl)-2-(1-(trifluoromethyl)cyclopropane-1-carbonyl)-2,6-diazaspiro[3.4]octan-6-yl)methanone] | > 10 | 5 to 10 | –
3 | CC(c1nc(C2CN(C(=O)c3cnn(Cc4nnnn4C)c3)CC23CN(C(=O)[C@H]2CC2(C)C)C3)no1)n1ccc(C2CCCC2)n1 (stereo partly drawn) [I-111, (8-(5-(1-(3-cyclopentyl-1H-pyrazol-1-yl)ethyl)-1,2,4-oxadiazol-3-yl)-2-((S)-2,2-dimethylcyclopropane-1-carbonyl)-2,6-diazaspiro[3.4]octan-6-yl)(1-((1-methyl-1H-tetrazol-5-yl)methyl)-1H-pyrazol-4-yl)methanone] | 5 to 10 | 0.5 to 5 | –
4 | O=C(c1cnc(O)cn1)N1CC(c2nnc(C(COCc3ccccc3)c3cccc(C4CCCCC4)c3)o2)C2(C1)CN(C(=O)C1(C(F)(F)F)CC1)C2 (stereo not drawn) [I-107, (8-(5-(2-(benzyloxy)-1-(3-cyclohexylphenyl)ethyl)-1,3,4-oxadiazol-2-yl)-2-(1-(trifluoromethyl)cyclopropane-1-carbonyl)-2,6-diazaspiro[3.4]octan-6-yl)(5-hydroxypyrazin-2-yl)methanone] | 0.5 to 5 | ≤ 0.5 | –
5 | CC(c1nc(C2CN(C(=O)c3cnn(Cc4ccc(C#N)cc4)c3)CC23CN(C(=O)C2(C(F)(F)F)CC2)C3)no1)n1ccc(C(F)(F)F)n1 (stereo not drawn) [I-207] | > 10 | > 10 | –
6 | CC(c1nc(C2CN(C(=O)c3cnn(Cc4ccc(-c5nnn[nH]5)cc4)c3)CC23CN(C(=O)[C@H]2CC2(C)C)C3)no1)n1ccc(C2CCCC2)n1 (stereo partly drawn) [I-121, (1-(4-(1H-tetrazol-5-yl)benzyl)-1H-pyrazol-4-yl)(8-(5-(1-(3-cyclopentyl-1H-pyrazol-1-yl)ethyl)-1,2,4-oxadiazol-3-yl)-2-((S)-2,2-dimethylcyclopropane-1-carbonyl)-2,6-diazaspiro[3.4]octan-6-yl)methanone] | > 10 | 0.5 to 5 | –
7 | C=CC(=O)N(C)c1cccc(Cc2ccc(Cn3cc(C(=O)N4CC(c5nnc(C(F)(F)c6ccc(Cl)c(Cl)c6)o5)C5(C4)CN(C(=O)C4(C(F)(F)F)CC4)C5)cn3)cc2)c1 (stereo not drawn) [I-208] | > 10 | > 10 | –
8 | CC(c1nc(C2CN(C(=O)c3cnc(O)cn3)CC23CN(C(=O)[C@H]2CC2(F)F)C3)no1)n1ccc(C2CCOCC2)n1 (stereo partly drawn) [I-116, (2-((R)-2,2-difluorocyclopropane-1-carbonyl)-8-(5-(1-(3-(tetrahydro-2H-pyran-4-yl)-1H-pyrazol-1-yl)ethyl)-1,2,4-oxadiazol-3-yl)-2,6-diazaspiro[3.4]octan-6-yl)(5-hydroxypyrazin-2-yl)methanone] | > 10 | > 10 | –
9 | CC1(C)C[C@@H]1C(=O)N1CC2(CN(C(=O)c3cncs3)CC2c2nc3ccc(Oc4ccccc4-c4cncs4)cc3o2)C1 (stereo partly drawn) [I-221, (2-((S)-2,2-dimethylcyclopropane-1-carbonyl)-8-(6-(2-(thiazol-5-yl)phenoxy)benzo[d]oxazol-2-yl)-2,6-diazaspiro[3.4]octan-6-yl)(thiazol-5-yl)methanone] | 5 to 10 | 0.5 to 5 | –
10 | CC(c1nc(C2CN(C(=O)c3cnn(Cc4ccc(C(F)(F)F)cc4)c3)CC23CN(C(=O)C2(C(F)(F)F)CC2)C3)no1)n1ccc(C23CCC(CC2)OC3)n1 (stereo not drawn) [I-217, (8-(5-(1-(3-(2-oxabicyclo[2.2.2]octan-4-yl)-1H-pyrazol-1-yl)ethyl)-1,2,4-oxadiazol-3-yl)-2-(1-(trifluoromethyl)cyclopropane-1-carbonyl)-2,6-diazaspiro[3.4]octan-6-yl)(1-(4-(trifluoromethyl)benzyl)-1H-pyrazol-4-yl)methanone] | 5 to 10 | 0.5 to 5 | –
11 | O=C(c1cnn(Cc2cccc3[nH]cnc23)c1)N1CC(c2nnc(C(F)(F)c3ccc(Cl)c(Cl)c3)o2)C2(C1)CN(C(=O)C1(C(F)(F)F)CC1)C2 (stereo not drawn) [I-108, (1-((1H-benzo[d]imidazol-4-yl)methyl)-1H-pyrazol-4-yl)(8-(5-((3,4-dichlorophenyl)difluoromethyl)-1,3,4-oxadiazol-2-yl)-2-(1-(trifluoromethyl)cyclopropane-1-carbonyl)-2,6-diazaspiro[3.4]octan-6-yl)methanone] | 5 to 10 | 0.5 to 5 | –
12 | COC(=O)c1ccccc1Cn1cc(C(=O)N2CC(c3noc(C(C)n4ccc(C5(C(F)(F)F)CC5)n4)n3)C3(C2)CN(C(=O)C2(C(F)(F)F)CC2)C3)cn1 (stereo not drawn) [I-222] | > 10 | > 10 | –
13 | O=C(c1cncc(O)n1)N1CC(c2nnc(C(F)(F)c3ccc(Cl)c(Cl)c3)o2)C2(C1)CN(C(=O)[C@H]1CC1(F)F)C2 (stereo partly drawn) [I-112, (8-(5-((3,4-dichlorophenyl)difluoromethyl)-1,3,4-oxadiazol-2-yl)-2-((R)-2,2-difluorocyclopropane-1-carbonyl)-2,6-diazaspiro[3.4]octan-6-yl)(6-hydroxypyrazin-2-yl)methanone] | > 10 | > 10 | –
14 | CC(c1nc(C2CN(C(=O)c3cnn(CC(=O)O)c3)CC23CN(C(=O)[C@H]2CC2(C)C)C3)no1)n1ccc(C2CCCC2)n1 (stereo partly drawn) [I-110, 2-(4-(8-(5-(1-(3-cyclopentyl-1H-pyrazol-1-yl)ethyl)-1,2,4-oxadiazol-3-yl)-2-((S)-2,2-dimethylcyclopropane-1-carbonyl)-2,6-diazaspiro[3.4]octane-6-carbonyl)-1H-pyrazol-1-yl)acetic acid] | > 10 | 5 to 10 | –
15 | O=C(c1cnn(Cc2ccc(C(F)(F)F)cc2)c1)N1CC(c2noc(N(Cc3ccc(Cl)c(Cl)c3)CC3CCOCC3)n2)C2(C1)CN(C(=O)C1(C(F)(F)F)CC1)C2 (stereo not drawn) [I-213, (8-(5-((3,4-dichlorobenzyl)((tetrahydro-2H-pyran-4-yl)methyl)amino)-1,2,4-oxadiazol-3-yl)-2-(1-(trifluoromethyl)cyclopropane-1-carbonyl)-2,6-diazaspiro[3.4]octan-6-yl)(1-(4-(trifluoromethyl)benzyl)-1H-pyrazol-4-yl)methanone] | 5 to 10 | > 10 | –
16 | CC(c1nc(C2CN(C(=O)c3cnn(Cc4ccc(C#N)cc4)c3)CC23CN(C(=O)C2(C(F)(F)F)CC2)C3)no1)n1ccc(C2CCC(F)(F)CC2)n1 (stereo not drawn) [I-210] | ≤ 0.5 | 0.5 to 5 | –
17 | CC(c1nc(C2CN(C(=O)c3cnn(Cc4ccc(C(F)(F)F)cc4C(=O)O)c3)CC23CN(C(=O)C2(C(F)(F)F)CC2)C3)no1)n1ccc(C2(C(F)(F)F)CC2)n1 (stereo not drawn) [I-218, 5-(trifluoromethyl)-2-((4-(2-(1-(trifluoromethyl)cyclopropane-1-carbonyl)-8-(5-(1-(3-(1-(trifluoromethyl)cyclopropyl)-1H-pyrazol-1-yl)ethyl)-1,2,4-oxadiazol-3-yl)-2,6-diazaspiro[3.4]octane-6-carbonyl)-1H-pyrazol-1-yl)methyl)benzoic acid] | > 10 | > 10 | –
18 | O=C(C1COC1)N1CC(c2nnc(C(F)(F)c3ccc(Cl)c(Cl)c3)o2)C2(C1)CN(C(=O)[C@H]1CC1(F)F)C2 (stereo partly drawn) [I-153] | > 10 | – | > 10
19 | O=C(c1ccn[nH]1)N1CC(c2nnc(C(F)(F)c3ccc(Cl)c(Cl)c3)o2)C2(C1)CN(C(=O)[C@H]1CC1(F)F)C2 (stereo partly drawn) [I-155] | > 10 | – | > 10
20 | O=C([C@H]1CC1(F)F)N1CC(c2nnc(C(F)(F)c3ccc(Cl)c(Cl)c3)o2)C2(C1)CN(C(=O)[C@H]1CC1(F)F)C2 (stereo partly drawn) [I-171] | > 10 | – | > 10
21 | CC1(C)C[C@@H]1C(=O)N1CC2(CN(C(=O)c3cnn(Cc4ccccc4)c3)CC2c2nc(C(=O)NCC3CCCCC3)co2)C1 (stereo partly drawn) [I-92] | 5 to 10 | – | 0.01 to 0.1
